One series is described as follows: in vivo. The settings on record: mouse, acute.
In another series the test system is Helicobacter pylori. Put plainly: MIC (minimum inhibitory concentration) determination using various clinical isolates of H.pylori. In kind it is cell-based. The settings on record: Mueller-Hinton agar with 7% defibrinated horse blood, pH 7.2, 72 hours, 37° C., 5% CO2. The method, then:
The activity of the compounds of formula I against Helicobacter pylori can be verified e.g. by determination of the MIC (minimum inhibitory concentration) in the following test method using various clinical isolates of H.pylori: Clinical isolates of H.pylori are stored at -70° C. in Brucella broth with 20% glycerol. All isolates are subcultured on fresh blood agar Blood agar base No. 2, Unipath, with 5% defibrinated horse blood) and confirmed as Helicobacter pylori by Gram shin, catalase, oxidase and rapid-urease tests. Initial incubation is carried out microaerobically in a variable-atmosphere incubator (6% O2, 10% CO2, 3% H2, 81% N2) at 37° C. Subcultures and MIC tests are carried out in humidified air with 5% CO2 at 37° C. Test compounds are incorporated into Mueller-Hinton agar (Unipath) with 7% defibrinated horse blood at pH 7.2. After growth for 72 hours on blood agar H.pylori suspensions are made in Brucella broth (Unipath) equivalent to McFarland standard No. 3. This represents 10^8 cfu/ml H.pylori. A multipoint inoculator will deliver 1 μl per spot (approximately 10^5 cfu). The type strain NCTC 11637 is used as a control in each run. […] All tests are carried out in triplicate.

≈ marks a conversion by molar mass, not a printed value. Where two headings read alike, the source gives them in different places.

On to `CN(C/C=C/C#CC(C)(C)C)Cc1cccc2ccccc12`, for which the LD50 in “in vivo” (ip, i.p., read-out: LD50 i.p.) was 790 mg/kg; in “in vivo” (po, p.o., read-out: LD50 p.o.), above 1000 mg/kg.

Consider `C(=C\c1ccccc1)/CN1CCCC[C@@H]1c1cccc2ccccc12` [N-[(E)-3-phenyl-2-propenyl-2-piperidinyl], for which the MIC against Helicobacter pylori was in the range of 0.06 to 4 µg/mL (≈ 0.183 to 12.2 µM).

For orientation: LD50 means the dose at which mortality reaches 50%. By MIC is commonly meant the least concentration at which growth counts as inhibited. A low value points to inhibition by little substance.
